# Assay results taken from US20250313572A1, “MACROCYCLIC MCL-1 INHIBITORS AND METHODS OF USE” (AbbVie Inc., priority 2017, published 2025).
# Like-named read-outs stand apart in the source and are kept apart here.
# How the values were obtained:
# [1] = system: AMO-1 human multiple myeloma tumor cell line; test: AMO-1 cell viability assay (CellTiter-Glo, 24 hours); type: cell-based; conditions: Homo sapiens, AMO1, 24 h, read-out: AMO-1 Viability IC50 (μM, 10% FBS), 10% FBS, 24 hours of compound treatment
# GST-MCL-1 = GST-MCL-1 (Homo sapiens, UniProt Q07820); test: TR-FRET MCL-1 binding assay (competition with probe F-Bak)
# In short: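 Displacement of F-Bak from GST-MCL-1 is detected by time-resolved FRET with a Tb-labelled anti-GST antibody, with excitation 340/35 nm and emission 520/525 and 495/510 nm, after 2 hours at room temperature. Compounds were titrated in 11 three-fold steps starting at 25 μM final, in buffer alone or in 10% HS.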
# [2] = system: NCI-H929 human multiple myeloma tumor cell line; test: NCI-H929 cell viability assay (CellTiter-Glo, 24 hours); type: cell-based; conditions: Homo sapiens, NCI-H929, 24 h, read-out: H929 Viability IC50 (μM, 10% FBS), 10% FBS, 24 hours of compound treatment
# [3] = MCL-1 Binding Ki (nM, 10% HS), in the presence of 10% HS (human serum)
# [4] = without HS, read-out: MCL-1 Binding Ki
# GST-MCL-1, sequence (Q07820 whole entry): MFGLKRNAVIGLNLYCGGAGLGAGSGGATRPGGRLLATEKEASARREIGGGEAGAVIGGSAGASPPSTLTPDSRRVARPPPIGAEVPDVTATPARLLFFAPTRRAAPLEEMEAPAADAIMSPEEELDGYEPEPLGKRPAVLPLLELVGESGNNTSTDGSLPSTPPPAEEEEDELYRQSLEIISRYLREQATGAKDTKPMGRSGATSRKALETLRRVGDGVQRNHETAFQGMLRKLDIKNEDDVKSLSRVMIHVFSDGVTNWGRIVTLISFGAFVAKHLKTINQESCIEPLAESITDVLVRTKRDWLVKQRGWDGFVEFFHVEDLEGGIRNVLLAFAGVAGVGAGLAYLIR
SMILES,IC50 [1],Ki (GST-MCL-1; [3]),Ki (GST-MCL-1; [4]),IC50 [2]
"Cc1c(Cl)c2c(Cl)c(C)c1-c1c(-c3ccc(F)cc3)sc3ncnc(c13)O[C@@H](C(=O)O)Cc1cc(ccc1OCc1ccnc(C3(COCCOCCOC[C@H]4COCCO4)CCC3)n1)OC[C@@H](CN1CCN(C)CC1)O2 [Example 72, (7R,16R)-19,23-dichloro-10-{[2-(1-{[2-(2-{[(2R)-1,4-dioxan-2-yl]methoxy}ethoxy)ethoxy]methyl}cyclobutyl)pyrimidin-4-yl]methoxy}-1-(4-fluorophenyl)-20,22-dimethyl-16-[(4-methylpiperazin-1-yl)methyl]-7,8,15,16-tetrahydro-18,21-etheno-13,9-(metheno)-6,14,17-trioxa-2-thia-3,5-diazacyclononadeca[1,2,3-cd]indene-7-carboxylic Acid]",0.000331 µM,0.184 nM,0.064 nM,0.000743 µM
"COCCOCCOCCOCC1(C)CC=C(c2nccc(COc3ccc4cc3C[C@H](C(=O)O)Oc3ncnc5sc(-c6ccc(F)cc6)c(c35)-c3c(C)c(Cl)c(c(Cl)c3C)O[C@H](CN3CCN(C)CC3)CO4)n2)CC1 (single isomer, unassigned) [Example 112, (7R,16R)-19,23-dichloro-1-(4-fluorophenyl)-20,22-dimethyl-16-[(4-methylpiperazin-1-yl)methyl]-10-({2-[(4R*)-4-methyl-4-(2,5,8,11-tetraoxadodecan-1-yl)cyclohex-1-en-1-yl]pyrimidin-4-yl}methoxy)-7,8,15,16-tetrahydro-18,21-etheno-13,9-(metheno)-6,14,17-trioxa-2-thia-3,5-diazacyclononadeca[1,2,3-cd]indene-7-carboxylic Acid]",0.000132 µM,0.217 nM,0.012 nM,0.000283 µM
"COCCOCCOC[C@H]1CC=C(c2nccc(COc3ccc4cc3C[C@H](C(=O)O)Oc3ncnc5sc(-c6ccc(F)cc6)c(c35)-c3c(C)c(Cl)c(c(Cl)c3C)O[C@H](CN3CCN(C)CC3)CO4)n2)CC1 [Example 127, (7R,16R)-19,23-dichloro-1-(4-fluorophenyl)-10-({2-[(4R)-4-{[2-(2-methoxyethoxy)ethoxy]methyl}cyclohex-1-en-1-yl]pyrimidin-4-yl}methoxy)-20,22-dimethyl-16-[(4-methylpiperazin-1-yl)methyl]-7,8,15,16-tetrahydro-18,21-etheno-13,9-(metheno)-6,14,17-trioxa-2-thia-3,5-diazacyclononadeca[1,2,3-cd]indene-7-carboxylic acid]",0.000124 µM,0.339 nM,0.028 nM,0.000385 µM
"COCCOCCOCCOCCOCCOCCOCCC(=O)N1CCC[C@@H]1c1nccc(COc2ccc3cc2C[C@H](C(=O)O)Oc2ncnc4sc(-c5ccc(F)cc5)c(c24)-c2ccc(c(Cl)c2C)O[C@H](CN2CCN(C)CC2)CO3)n1 [Example 43, (7R,16R)-19-chloro-1-(4-fluorophenyl)-20-methyl-16-[(4-methylpiperazin-1-yl)methyl]-10-({2-[(2R)-1-(23-oxo-2,5,8,11,14,17,20-heptaoxatricosan-23-yl)pyrrolidin-2-yl]pyrimidin-4-yl}methoxy)-7,8,15,16-tetrahydro-18,21-etheno-13,9-(metheno)-6,14,17-trioxa-2-thia-3,5-diazacyclononadeca[1,2,3-cd]indene-7-carboxylic Acid]",> 1 µM,39.4 nM,41.1 nM,> 1 µM
"COCCOCCOC[C@@]1(F)CC=C(c2nccc(COc3ccc4cc3C[C@H](C(=O)O)Oc3ncnc5sc(C6=CCCC6)c(c35)-c3c(C)c(Cl)c(c(Cl)c3C)O[C@H](CN3CCN(C)CC3)CO4)n2)CC1 (relative stereo) [Example 135, (7R,16R)-19,23-dichloro-1-(cyclopent-1-en-1-yl)-10-({2-[(4S*)-4-fluoro-4-{[2-(2-methoxyethoxy)ethoxy]methyl}cyclohex-1-en-1-yl]pyrimidin-4-yl}methoxy)-20,22-dimethyl-16-[(4-methylpiperazin-1-yl)methyl]-7,8,15,16-tetrahydro-18,21-etheno-13,9-(metheno)-6,14,17-trioxa-2-thia-3,5-diazacyclononadeca[1,2,3-cd]indene-7-carboxylic Acid]",0.000191 µM,0.489 nM,0.029 nM,0.000591 µM
"Cc1c(Cl)c2c(Cl)c(C)c1-c1c(-c3ccc(F)cc3)sc3ncnc(c13)O[C@@H](C(=O)O)Cc1cc(ccc1OCc1ccnc(N3C[C@H]4C[C@@H](C3)[C@H]4O)n1)OC[C@@H](CN1CCN(C)CC1)O2 [Example 167, (7R,16R)-19,23-dichloro-1-(4-fluorophenyl)-10-({2-[(1R,5S,6r)-6-hydroxy-3-azabicyclo[3.1.1]heptan-3-yl]pyrimidin-4-yl}methoxy)-20,22-dimethyl-16-[(4-methylpiperazin-1-yl)methyl]-7,8,15,16-tetrahydro-18,21-etheno-13,9-(metheno)-6,14,17-trioxa-2-thia-3,5-diazacyclononadeca[1,2,3-cd]indene-7-carboxylic Acid]",0.002 µM,0.698 nM,0.06 nM,0.00892 µM
"Cc1c(Cl)c2c(Cl)c(C)c1-c1c(-c3ccc(F)cc3)sc3ncnc(c13)O[C@@H](C(=O)O)Cc1cc(ccc1OCc1ccnc(N3CC4(C3)CC(F)(F)C4)n1)OC[C@@H](CN1CCN(C)CC1)O2 [Example 48, (7R,16R)-19,23-dichloro-10-{[2-(6,6-difluoro-2-azaspiro[3.3]heptan-2-yl)pyrimidin-4-yl]methoxy}-1-(4-fluorophenyl)-20,22-dimethyl-16-[(4-methylpiperazin-1-yl)methyl]-7,8,15,16-tetrahydro-18,21-etheno-9,13-(metheno)-6,14,17-trioxa-2-thia-3,5-diazacyclononadeca[1,2,3-cd]indene-7-carboxylic Acid]",0.00275 µM,5.32 nM,0.644 nM,0.00798 µM
"CO[C@@H]1CO[C@H]2[C@@H]1OC[C@H]2OCCOCCOc1ccc(-c2nccc(COc3ccc4cc3C[C@H](C(=O)O)Oc3ncnc5sc(-c6ccc(F)cc6)c(c35)-c3c(C)c(Cl)c(c(Cl)c3C)O[C@H](CN3CCN(C)CC3)CO4)n2)cc1 [Example 159, (7R,16R)-19,23-dichloro-1-(4-fluorophenyl)-10-[(2-{4-[2-(2-{[(3R,3aR,6R,6aR)-6-methoxyhexahydrofuro[3,2-b]furan-3-yl]oxy}ethoxy)ethoxy]phenyl}pyrimidin-4-yl)methoxy]-20,22-dimethyl-16-[(4-methylpiperazin-1-yl)methyl]-7,8,15,16-tetrahydro-18,21-etheno-13,9-(metheno)-6,14,17-trioxa-2-thia-3,5-diazacyclononadeca[1,2,3-cd]indene-7-carboxylic Acid]",0.000296 µM,0.087 nM,0.008 nM,0.000379 µM
"Cc1c(Cl)c2c(Cl)c(C)c1-c1c(-c3ccc(F)cc3)sc3ncnc(c13)O[C@@H](C(=O)O)Cc1cc(ccc1OCc1ccnc(-c3ccc(CCC(=O)O)cc3)n1)OC[C@@H](CN1CCN(C)CC1)O2 [Example 20, (7R,16R)-10-({2-[4-(2-carboxyethyl)phenyl]pyrimidin-4-yl}methoxy)-19,23-dichloro-1-(4-fluorophenyl)-20,22-dimethyl-16-[(4-methylpiperazin-1-yl)methyl]-7,8,15,16-tetrahydro-18,21-etheno-13,9-(metheno)-6,14,17-trioxa-2-thia-3,5-diazacyclononadeca[1,2,3-cd]indene-7-carboxylic Acid]",0.00425 µM,0.165 nM,0.007 nM,0.00804 µM
"COCCOCCOCCOCCOCCOC[C@]1(F)CC[C@@H](c2nccc(COc3ccc4cc3C[C@H](C(=O)O)Oc3ncnc5sc(-c6ccc(F)cc6)c(c35)-c3c(C)c(Cl)c(c(Cl)c3C)O[C@H](CN3CCN(C)CC3)CO4)n2)CC1 [Example 113, (7R,16R)-19,23-dichloro-10-({2-[(1s,4s)-4-fluoro-4-(2,5,8,11,14,17-hexaoxaoctadecan-1-yl)cyclohexyl]pyrimidin-4-yl}methoxy)-1-(4-fluorophenyl)-20,22-dimethyl-16-[(4-methylpiperazin-1-yl)methyl]-7,8,15,16-tetrahydro-18,21-etheno-13,9-(metheno)-6,14,17-trioxa-2-thia-3,5-diazacyclononadeca[1,2,3-cd]indene-7-carboxylic Acid]",0.00028 µM,0.065 nM,0.016 nM,0.00064 µM
"Cc1c(Cl)c2c(Cl)c(C)c1-c1c(-c3ccc(F)cc3)sc3ncnc(c13)O[C@@H](C(=O)O)Cc1cc(ccc1OCc1ccnc(-c3ccccc3S(C)(=N)=O)n1)OCC(CN1CCN(C)CC1)O2 (stereo partly drawn) [Example 26, (7R,16R)-19,23-dichloro-1-(4-fluorophenyl)-10-({2-[2-(S-methanesulfonimidoyl)phenyl]pyrimidin-4-yl}methoxy)-20,22-dimethyl-16-[(4-methylpiperazin-1-yl)methyl]-7,8,15,16-tetrahydro-18,21-etheno-13,9-(metheno)-6,14,17-trioxa-2-thia-3,5-diazacyclononadeca[1,2,3-cd]indene-7-carboxylic Acid]",0.00112 µM,0.11 nM,0.021 nM,0.00289 µM
